Measured values as given in US20250122502A1, “Bifunctional Molecules and Methods of Using Thereof” (FLAGSHIP PIONEERING, INC., priority 2021, published 2025).

Test system: MYC expression in HEK293T cells
Experiment: MYC expression by qPCR after RNAiMax transfection
Format: cell-based, human
Conditions: 100 nM, 24 hours
Protocol: HEK293T cells were seeded at 30 k cells/well in a 96 well tissue culture vessel day before transfection. The next day cells were transfected with 400, 200, 100, 50 nM of PVT1 ASO1-JQ1 with Lipofectamine RNAiMax (ThermoFisher Cat #13778150). […] Transfected cells were allowed to recover and were harvested after 24 hours. MYC expression was measured by RNA level using qPCR analysis after transfection with each of the bi-functional molecule or control molecules. Cell samples for qPCR analysis were prepared by Cells to Ct 1 Step TaqMan Kit (ThermoFisher A25602) following manufacturer's recommendations. qPCR assays were performed using Cells to Ct qPCR master mix, gene specific TaqMan probe (ThermoFisher), and Cells to Ct cell lysate. Relative levels of MYC were normalized to β-actin as a stably expressed control. MYC TaqMan probe: […] ACTB TaqMan probe: […] During qPCR amplification, FAM fluorescence intensity for each target gene was recorded by QuantStudio7 qPCR instrument (ThermoFisher Scientific) as a measurement of the amount of double-stranded DNA produced during each PCR cycle. Ct values for each gene in each sample were computed by the instrument software based on the amplification curves, and used to determine relative expression values for target and β-actin in each sample.

Row | Substance | MYC expression change (in words)
1 | PVT1-Scr1: partially scrambled PVT1 ASO1 (SEQ ID NO: 63) conjugated to JQ1 (antisense TGAAGTGGAATTCCAGTTG; listed as DNA, chemistry not fully specified) | less impact
2 | PVT1-Scr4: partially scrambled PVT1 ASO1 (SEQ ID NO: 66) conjugated to JQ1 (antisense GTAAGTGGAATTCCATTGG; listed as DNA, chemistry not fully specified) | less impact
